Source: BigSolDB 2.1

CN1COCNC1=N[N+](=O)[O-]
solubility (mole fraction)
Details	293.15 K	298.15 K	303.15 K	308.15 K	313.15 K	318.15 K	323.15 K
in DMF	0.0947	0.113	0.12	0.138	0.141	0.165	0.166
in DMSO	0.0794	0.0978	0.104	0.115	0.12	0.123	0.14
in acetonitrile	0.0241	0.0318	0.0336	0.0411	0.0436	0.0547	0.0563
in dichloromethane	0.0126	0.0154	0.0162	0.0233	0.0234	0.0265	0.0277
in ethanol	0.00163	0.00212	0.00241	0.00351	0.00379	0.00445	0.00507
in ethyl acetate	0.00579	0.00614	0.00633	0.0074	0.00773	0.00866	0.0106
in ethylene glycol	0.00157	0.00248	0.00289	0.00439	0.00447	0.00527	0.00893
in isopropanol	0.00101	0.0013	0.0013	0.00175	0.00242	0.00285	0.00303
in methanol	0.00289	0.00422	0.00447	0.00532	0.00682	0.00759	0.00978
in methyl acetate	0.00741	0.00839	0.00936	0.0115	0.0124	0.0133	0.0157
in n-butanol	0.00199	0.00218	0.00234	0.00279	0.00308	0.00321	0.00362
in n-propanol	0.00109	0.00146	0.00195	0.00217	0.00247	0.00301	0.00441
